Assays:
human GPR55 = biological target: T1, human GPR55 (Homo sapiens, UniProt Q9Y2T6); assay: β-Arrestin recruitment assay (PathHunter) at GPR55; type: cell-based; details: for IC50: Human GPR55 IC50, β-arrestin assay, antagonist mode; for Human GPR55 % activation / Human GPR55 % inhibition: β-arrestin assay; for Human GPR55 % activation: percent in brackets beside EC50 >10 µM; for Human GPR55 % inhibition: percent in brackets beside IC50
T1 construct: β-galactosidase enzyme fragment (PathHunter complementation tag)
T1 sequence (Q9Y2T6 whole entry, the tested form may be a part): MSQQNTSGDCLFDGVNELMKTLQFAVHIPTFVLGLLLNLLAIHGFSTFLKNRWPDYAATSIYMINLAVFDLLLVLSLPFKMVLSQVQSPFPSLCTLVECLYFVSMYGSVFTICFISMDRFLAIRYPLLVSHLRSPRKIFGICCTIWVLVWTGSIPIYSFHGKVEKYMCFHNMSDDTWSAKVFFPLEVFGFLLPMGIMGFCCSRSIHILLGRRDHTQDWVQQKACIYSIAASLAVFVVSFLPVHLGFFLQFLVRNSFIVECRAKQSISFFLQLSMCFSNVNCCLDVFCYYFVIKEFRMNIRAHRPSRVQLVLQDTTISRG
Description: (§1) Recruitment of β-arrestin to the respective receptor was detected by using β-galactosidase enzyme fragment complementation technology (β-arrestin PathHunter™ assay, DiscoverX, Fremont, CA, USA) as previously described. Data were obtained from three independent experiments, performed in duplicates. Data were analyzed using Graph Pad Prism Version 4.02 (San Diego, CA, USA).

human GPR18 = biological target: T2, human GPR18 (Homo sapiens, UniProt Q14330); assay: β-Arrestin recruitment assay (PathHunter) at GPR18; type: cell-based; details: for Human GPR18 % activation / Human GPR18 % inhibition: β-arrestin assay; for Human GPR18 % activation: percent in brackets beside EC50 >10 µM; for Human GPR18 % inhibition: percent in brackets beside IC50
T2 construct: β-galactosidase enzyme fragment (PathHunter complementation tag)
T2 sequence (Q14330 1-331): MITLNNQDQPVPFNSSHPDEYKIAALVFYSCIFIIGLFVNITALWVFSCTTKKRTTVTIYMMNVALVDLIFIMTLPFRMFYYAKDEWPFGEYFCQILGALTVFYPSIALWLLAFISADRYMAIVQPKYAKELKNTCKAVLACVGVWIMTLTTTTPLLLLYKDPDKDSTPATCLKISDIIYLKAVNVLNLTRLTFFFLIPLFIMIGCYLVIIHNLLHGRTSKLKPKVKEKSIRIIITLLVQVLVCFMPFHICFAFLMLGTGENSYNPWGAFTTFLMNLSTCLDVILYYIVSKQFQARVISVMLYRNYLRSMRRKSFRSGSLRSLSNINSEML
Description: as §1

CB1 receptor = CB1 receptor (Homo sapiens, UniProt P21554); assay: biochemical; type: binding; parameters: expressed in transfected cells; host or cells: CHO cells (membrane preparation); details: for CB1 selectivity Ki CB2/KiCB1: Table S1, selectivity index from Ki values; for Ki: versus 0.1 nM [3H]CP55,940, CHO cell membranes, mean ± SEM of three to five experiments, read-out: Ki ± SEM Human CB1; for fold higher Ki value at CB1 receptors after introduction of a quinoline: amide-linked group A, compared with naphthyl analogue (8 vs 10; 9 vs 11)
Chain of CB1 receptor (P21554 whole entry): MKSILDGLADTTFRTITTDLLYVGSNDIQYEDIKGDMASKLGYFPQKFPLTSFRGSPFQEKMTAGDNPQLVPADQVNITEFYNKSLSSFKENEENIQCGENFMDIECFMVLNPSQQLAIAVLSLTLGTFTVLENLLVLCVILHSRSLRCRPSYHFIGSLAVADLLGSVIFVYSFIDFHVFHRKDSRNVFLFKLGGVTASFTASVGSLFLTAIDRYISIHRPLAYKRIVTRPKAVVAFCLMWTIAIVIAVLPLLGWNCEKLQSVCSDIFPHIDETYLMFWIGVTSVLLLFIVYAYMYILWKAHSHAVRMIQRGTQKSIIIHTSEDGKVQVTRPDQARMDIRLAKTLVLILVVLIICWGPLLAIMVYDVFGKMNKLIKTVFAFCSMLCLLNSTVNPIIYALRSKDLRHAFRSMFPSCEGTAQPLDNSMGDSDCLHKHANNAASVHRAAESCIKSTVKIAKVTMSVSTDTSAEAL

CB2 receptor = CB2 receptor (Homo sapiens, UniProt P34972); assay: biochemical; type: binding; parameters: expressed in transfected cells; host or cells: CHO cells (membrane preparation); details: for Ki: versus 0.1 nM [3H]CP55,940, CHO cell membranes, mean ± SEM of three to five experiments, read-out: Ki ± SEM Human CB2; for CB2 selectivity Ki CB1/KiCB2: Table S1, selectivity index from Ki values
Chain of CB2 receptor (P34972 whole entry): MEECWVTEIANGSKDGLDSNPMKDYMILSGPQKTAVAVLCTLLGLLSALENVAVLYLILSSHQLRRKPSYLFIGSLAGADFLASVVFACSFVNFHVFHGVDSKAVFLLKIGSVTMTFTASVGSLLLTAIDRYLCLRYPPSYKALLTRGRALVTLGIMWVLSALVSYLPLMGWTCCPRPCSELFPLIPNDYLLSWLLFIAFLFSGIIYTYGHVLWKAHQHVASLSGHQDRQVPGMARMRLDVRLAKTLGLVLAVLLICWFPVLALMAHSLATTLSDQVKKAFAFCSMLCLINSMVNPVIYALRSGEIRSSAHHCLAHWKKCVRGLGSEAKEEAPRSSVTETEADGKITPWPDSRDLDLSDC

SMILES | EC50 (human GPR55) [nM] | IC50 (human GPR55) [nM] | Human GPR55 % activation (human GPR55) [%] | Human GPR55 % inhibition (human GPR55) | EC50 (human GPR18) [nM] | IC50 (human GPR18) [nM] | Human GPR18 % activation (human GPR18) [%] | Human GPR18 % inhibition (human GPR18) | CB1 selectivity Ki CB2/KiCB1 (CB1 receptor) | Ki (CB1 receptor) [nM] | Ki (CB2 receptor) [nM] | fold higher Ki value at CB1 receptors after introduction of a quinoline (CB1 receptor) [fold] | CB2 selectivity Ki CB1/KiCB2 (CB2 receptor)
O=C(Nc1cccc2ccccc12)c1cn(CCCCCF)c2ccccc12 [Compound 5, 5F-NNEI] | > 10000 | > 10000 | 25 | −8% | > 10000 | > 10000 | −3 | −17% | 3.6 | 3.69 ± 1.97 | 13.4 ± 1.6 | – | –
O=C(Nc1cccc2ccccc12)c1cn(CCCCCCl)c2ccccc12 [Compound 6, 5Cl-NNEI] | > 10000 | > 10000 | 28 | 5% | > 10000 | > 10000 | 1 | −13% | 3.2 | 10.2 ± 2.2 | 32.8 ± 10.8 | – | –
O=C(Nc1cccc2ccccc12)c1nn(CCCCCF)c2ccccc12 [Compound 9, 5F-MN-18] | > 10000 | > 10000 | 38 | −5% | > 10000 | > 10000 | −26 | 23% | 1.5 | 1.65 ± 0.26 | 2.5 ± 0.86 | – | –
CCCCCn1nc(C(=O)Nc2cccc3cccnc23)c2ccccc21 [Compound 10, THJ] | > 10000 | > 10000 | 11 | 50% | > 10000 | > 10000 | 4 | 30% | – | 103 ± 25 | 12.7 ± 4.1 | 14 | 8.1
O=C(Nc1cccc2cccnc12)c1nn(CCCCCF)c2ccccc12 [Compound 11, 5F-THJ] | > 10000 | > 10000 | 28 | – | > 10000 | > 10000 | −17 | 44% | – | 22.6 ± 7.5 | 2.75 ± 0.99 | 27 | 8.2
CCCCCn1cc(C(=O)Nc2ccccc2)c2ccccc21 [Compound 14, SDB-006-N-phenyl-analog] | > 10000 | > 10000 | 20 | 1% | > 10000 | > 10000 | 9 | −13% | – | 163 ± 17 | 275 ± 25 | – | –
O=C(NC12CC3CC(CC(C3)C1)C2)c1nn(Cc2ccc(F)cc2)c2ccccc12 [Compound 18, N-((3s,5s,7s)-Adamantan-1-yl)-1-(4-fluorobenzyl)-1H-indazole-3-carboxamide] | > 10000 | – | −11 | (83 %) | > 10000 | – | −27 | (69 %) | – | 1.06 ± 0.29 | 0.174 ± 0.018 | – | 6.1
O=C(Oc1cccc2ccccc12)c1cn(Cc2ccc(F)cc2)c2ccccc12 [Compound 20, FDU-PB-22] | > 10000 | > 10000 | 11 | 30% | > 10000 | > 10000 | 30 | −4% | 2.0 | 1.19 ± 0.39 | 2.43 ± 0.92 | – | –
O=C(Oc1cccc2cccnc12)c1cn(CCCCCF)c2ccccc12 [Compound 25, 5F-PB-22] | > 10000 | > 10000 | 5 | -10% | > 10000 | > 10000 | −5 | −5% | 1.4 | 0.468 ± 0.069 | 0.633 ± 0.058 | – | –
O=C(Oc1cccc2cccnc12)c1cn(Cc2ccc(F)cc2)c2ccccc12 [Compound 26, FUB-PB-22] | > 10000 | > 10000 | 5 | 24% | > 10000 | > 10000 | 15 | 8% | 1.2 | 0.386 ± 0.117 | 0.478 ± 0.124 | – | –
CCCCCn1nc(C(=O)c2cccc3ccccc23)c2ccccc21 [Compound 28, THJ018] | > 10000 | 8200 ± 2110 | 6 | – | > 10000 | > 10000 | 33 | −5% | – | 5.84 ± 1.32 | 4.57 ± 0.28 | – | 1.3
O=C(c1cccc2ccccc12)c1nn(CCCCCF)c2ccccc12 [Compound 29, THJ2201] | > 10000 | > 10000 | −1 | 47% | > 10000 | > 10000 | 18 | 21% | 1.0 | 1.34 ± 0.54 | 1.32 ± 0.39 | – | 1.0
Cc1ccc(C(=O)c2cn(CCCCCF)c3ccccc23)c2ccccc12 [Compound 30, MAM-2201] | – | – | – | – | – | – | – | – | – | 1.58 ± 0.76 | 0.582 ± 0.123 | – | 2.7
Cc1ccc(C(=O)c2cn(CCCC(C)F)c3ccccc23)c2ccccc12 (stereo not drawn) [Compound 32, MAM-2201-4-fluoropentyl-isomer] | > 10000 | 3070 ± 1480 | −41 | – | – | – | – | – | – | 3.23 ± 1.56 | 0.808 ± 0.057 | – | 4.0
CCCCCn1cc(C(=O)c2ccccc2OC)c2ccccc21 [Compound 33, RCS-4] | – | – | – | – | – | – | – | – | – | 26.6 ± 6.6 | 2.86 ± 0.39 | – | 9.3
COc1ccccc1CC(=O)c1cn(CCC2CCCCC2)c2ccccc12 [Compound 34, RCS-8] | – | – | – | – | – | – | – | – | – | 81.3 ± 15.8 | 14.6 ± 6.1 | – | 5.6
O=C(c1cn(CCCCCF)c2ccccc12)C12CC3CC(CC(C3)C1)C2 [Compound 36, 5F-AB001] | > 10000 | ~10000 | 19 | 48% | > 10000 | ~10000 | −6 | – | – | 12.3 ± 3 | 1.47 ± 1.03 | – | 8.4
CCCC(F)Cn1cc(C(=O)C2C(C)(C)C2(C)C)c2ccccc21 (stereo not drawn) [Compound 39, XLR-11-2-fluoropentyl-isomer] | > 10000 | 5690 ± 1950 | −8 | – | > 10000 | > 10000 | 24 | 29% | – | 59.5 ± 16.9 | 1.83 ± 0.47 | – | 32.5
CC1(C)C(C(=O)c2nn(CCCCCF)c3ccccc23)C1(C)C [Compound 40, FAB-144] | > 10000 | ~10000 | 5 | 77% | > 10000 | ~10000 | 2 | 57% | – | 17.5 ± 1.1 | 0.45 ± 0.111 | – | 38.9

Reference: PMC4929166, “Pharmacological evaluation of synthetic cannabinoids identified as constituents of spice” (Forensic Toxicology, 2016)
